Test results as given in patent publication US20120115151A1, “METHOD FOR TESTING A SUBJECT THOUGHT TO BE PREDISPOSED TO HAVING METASTATIC CANCER USING DELTA133P53BETA” (CENTRE NATIONAL DE LA RECHERCHE SCIENTIFIQUE (CNRS), priority 2009, published 2012).

Tested on: hct116 cells transfected with GFP-tagged Δ133p53 isoforms
Experiment: Matrigel Transwell invasion assay in the presence of the ROCK inhibitor
Format: cell-based
Conditions: Y27632 at 10 μM; cells expressing Δ133p53 isoforms invading through Matrigel
Description: Y27632 was purchased from calbiochem and was used at 10 μM in all experiments. The quantification of cell invasion was carried out in Transwell cell culture chambers containing fluorescence-blocking polycarbonate porous membrane inserts (Fluoroblock; #351152; BD Biosciences; pore size 8 μm). 100 μl of 2 mg/mL Matrigel with reduced growth factors (a commercially prepared reconstituted BM from Englebreth-Holm-Swarm tumours, #354230; BD Biosciences) were prepared in a Transwell. Cells were transfected and treated or not with Y27632 as monolayers before trypsinization and plating (10·10^4) in 2% FCS containing media on top of a thick layer (around 500 μm) of Matrigel contained within the upper chamber of a Transwell. Controls were left untreated. The upper and lower chambers were then filled with respectively 2% FCS containing media and media with 10% FCS, thus establishing a soluble gradient of chemo-attractant that permits cell invasion throughout the Matrigel. Cells were allowed to invade at 37° C., 5% CO2 through the gel before fixing for 15 min in 3.7% formaldehyde. Cells that had invaded through the Matrigel were detected on the lower side of the filter by GFP fluorescence and counted for cell number. All the surface of the filter is counted and each assay was performed twice in triplicate for each condition. […]

C[C@@H](N)[C@H]1CC[C@H](C(=O)Nc2ccncc2)CC1 [Y27632]
invasiveness of transfected cells: highly reduced
